Measured values published in patent US20030055073A1, “Remedies for sjoegren's syndrome” (priority 2000, published 2003).

What was measured:
[1] = system: NFS/sld female mice (thymic gland extracted on the 3rd day after birth; Sjögren's syndrome model); assay: Laesio score by tissue findings of target organs in model mouse of Sjögren's syndrome (standard of White and Casarett); format: in vivo; conditions: 5 μg/kg/day s.c., 3 to 8 week age
Description: (§1) NFS/sld female mice of which thymic gland have been extracted on the 3rd day after the birth have Sjögren's syndrome after 4 weeks (Journal of Immunology, 153, 2769 (1994)). The compound represented by formula (la) of the present invention was subcutaneously administered once per day (5 μg/kg/day) to the mice from 3 week age to 8 week age which were immediately before histologic grand disorder was observed. The experiment was carried out for 3 non-administered groups (pathologic control) and 5 administered groups. In the 8th week, a stimulating agent (0.5 mg/kg pilocarpine hydrochloride) was intraperitoneally administered, and an amount of salivary gland liquid and an amount of lacrimal gland liquid were measured and evaluation was carried out by tissue findings.
The score is improved at a factor of ⅓ to ½ in each gland. The score was obtained based on the standard of White and Casarett (Journal of Immunology, 112, 178 (1974)).

[2] = system: NFS/sld female mice (thymic gland extracted on the 3rd day after birth; Sjögren's syndrome model); assay: Gland liquid secretion after pilocarpine stimulation in model mouse of naturally crisis Sjögren's syndrome; format: in vivo; conditions: 5 μg/kg/day s.c. once per day from 3 to 8 week age; 8th week, 0.5 mg/kg pilocarpine hydrochloride i.p.; measured for 35 minutes at 5 minute intervals
Description: as §1
Tables 1 and 2 show amounts of gland liquids (salivary gland secretory liquid and lacrimal gland secretory liquid) as cumulative rates (AUC) which measured for 35 minutes at the interval of 5 minutes after the administration of the stimulating agent.

[3] = Toxicity: maximum tolerated dose with an intravenous injection; conditions: mouse, in vivo, mice
Description: The toxicity of the compound represented by formula (I), (IA) or (Ia) of the present invention is very low and it was confirmed that it is sufficiently safe as a medicament. For example, a maximum tolerated dose with an intravenous injection using the compound represented by formula (Ia) of the present invention is 30 mg/kg in mice.

Structure (SMILES): C[C@H]1CC(=N)N[C@@H]2[C@H](Cl)[C@@H]21 [formula (Ia), (+)-trans-3-imino-5-methyl-7-chloro-2-azabicyclo[4.1.0]heptane]
- laesio score improved at a factor of (versus non-administered group) ([1]; each gland, score by standard of White and Casarett): ⅓ to ½
- inhibition effect on laesio for each target organ ([1]; submaxillary salivary gland, sublingual gland, parotid gland, lacrimal gland, FIG. 1): significant inhibition effects on laesio
- Lacrimal gland secretory liquid after administration of stimulating agent AUC0-35 minutes [2]: 0.798 mm/animal weight (g)
- Salivary gland secretory liquid after administration of stimulating agent AUC0-35 minutes [2]: 15.8 μl/animal weight (g)
- MTD [3]: 30 mg/kg
